Reference: paper PMC11739737 (Clinical Pharmacology and Therapeutics, 2024)
Read-outs that look alike come from different tables or passages of the source. Marks after values point to notes of the source that are not given here. Values belong to the molecule of their own block, whether it stands above or below them.

Tests used:
recombinant NNMT protein = target: T1, recombinant NNMT protein (Homo sapiens, UniProt P40261); assay: NNMT activity assay; assay type: biochemical; settings: nicotinamide 100 μM, 37°C, 6 min
T1 sequence (P40261 1-264): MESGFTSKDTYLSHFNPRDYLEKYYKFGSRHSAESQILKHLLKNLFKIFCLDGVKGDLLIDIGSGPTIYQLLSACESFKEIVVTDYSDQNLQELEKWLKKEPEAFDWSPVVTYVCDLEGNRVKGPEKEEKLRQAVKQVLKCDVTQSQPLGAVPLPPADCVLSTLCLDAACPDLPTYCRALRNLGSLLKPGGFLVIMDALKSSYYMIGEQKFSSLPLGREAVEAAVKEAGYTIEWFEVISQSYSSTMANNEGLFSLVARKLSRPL

[1] = assay type: in vivo, human; settings: for Cmax: geometric mean (geometric %CV); for half-life: half‐life after T max
OCT2 and MATE1/2-K [2] = assay: clinical; settings: male, human, in vivo, geometric mean; for AUC(0-t): AUC0–8hour; for CL renal: CLr (0–8 h)
OCT2 = target: T2, OCT2 (Homo sapiens, UniProt O15244); assay: Inhibition of OCT2-mediated metformin uptake in OCT2-HEK293 cells; assay type: in vitro ADME; settings: HEK293 cells stably expressing OCT2, pH 7.4, probe metformin (10 μM)
T2 sequence (O15244 1-555): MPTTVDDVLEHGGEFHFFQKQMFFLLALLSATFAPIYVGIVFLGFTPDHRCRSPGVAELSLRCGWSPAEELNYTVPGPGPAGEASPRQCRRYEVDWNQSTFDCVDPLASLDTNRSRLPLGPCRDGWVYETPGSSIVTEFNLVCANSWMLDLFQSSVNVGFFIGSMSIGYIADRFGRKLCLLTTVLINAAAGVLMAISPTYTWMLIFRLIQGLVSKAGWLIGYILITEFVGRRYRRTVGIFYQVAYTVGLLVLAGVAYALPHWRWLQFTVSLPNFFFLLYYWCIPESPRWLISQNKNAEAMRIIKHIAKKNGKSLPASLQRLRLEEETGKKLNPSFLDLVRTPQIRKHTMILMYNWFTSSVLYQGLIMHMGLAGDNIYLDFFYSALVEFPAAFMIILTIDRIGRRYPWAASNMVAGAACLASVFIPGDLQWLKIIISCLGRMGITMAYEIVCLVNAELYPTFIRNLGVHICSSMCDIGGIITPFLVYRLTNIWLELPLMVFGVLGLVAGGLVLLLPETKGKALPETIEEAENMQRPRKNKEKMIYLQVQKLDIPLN

MATE2‐K = MATE2‐K (Homo sapiens, UniProt Q86VL8); assay: Inhibition of MATE2‐K-mediated metformin uptake in MATE2‐K-HEK293 cells; assay type: in vitro ADME
MATE1 = target: T3, MATE1 (Homo sapiens, UniProt Q96FL8); assay: Inhibition of MATE1-mediated metformin uptake in MATE1-HEK293 cells; assay type: in vitro ADME; settings: K i for MATE1, metformin (10 μM) uptake, 37°C, MATE1-HEK; average of experiments
T3 sequence (Q96FL8 1-570): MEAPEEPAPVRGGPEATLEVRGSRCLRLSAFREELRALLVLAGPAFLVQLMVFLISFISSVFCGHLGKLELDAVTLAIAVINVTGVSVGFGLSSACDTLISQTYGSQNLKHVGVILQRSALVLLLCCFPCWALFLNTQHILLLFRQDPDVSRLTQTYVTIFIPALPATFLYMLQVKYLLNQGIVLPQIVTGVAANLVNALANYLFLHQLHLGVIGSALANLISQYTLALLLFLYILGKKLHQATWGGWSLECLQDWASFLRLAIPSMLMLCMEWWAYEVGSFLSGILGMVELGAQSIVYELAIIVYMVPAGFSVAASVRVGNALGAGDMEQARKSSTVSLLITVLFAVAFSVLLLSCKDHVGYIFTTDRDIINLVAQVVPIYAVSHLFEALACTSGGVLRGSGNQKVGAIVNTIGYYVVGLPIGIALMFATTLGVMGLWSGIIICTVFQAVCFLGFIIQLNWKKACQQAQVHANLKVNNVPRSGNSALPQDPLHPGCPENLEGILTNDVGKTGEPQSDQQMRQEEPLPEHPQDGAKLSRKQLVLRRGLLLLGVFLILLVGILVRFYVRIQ

[3] = cited from earlier work
OCT2 and MATE1/2-K [4] = assay: clinical; settings: male, human, in vivo; for AUC(0-t): AUC0–24hour, geometric mean; for Cmax: C max of metformin; for Cmax / CL renal: geometric mean (geometric %CV); for CL renal: CLr of metformin (0–24 hour)
OCT2 and MATE1/2‐K [5] = settings: for fe of metformin (fraction recovered in the urine): geometric mean (geometric %CV)
OCT2 and MATE1/2‐K [6] = settings: at fifth dose of dolutegravir
OAT1/3 = assay type: in vivo, human
[7] = dolutegravir (fifth) + metformin
[8] = dolutegravir (first) + metformin
[9] = male, human, plasma, oral, 50 mg
[10] = 50 mg, with dolutegravir 50 mg BID, fifth dose
[11] = 50 mg, with dolutegravir 50 mg BID, first dose

MATE2‐K, sequence (Q86VL8 1-566 isoform Q86VL8-3): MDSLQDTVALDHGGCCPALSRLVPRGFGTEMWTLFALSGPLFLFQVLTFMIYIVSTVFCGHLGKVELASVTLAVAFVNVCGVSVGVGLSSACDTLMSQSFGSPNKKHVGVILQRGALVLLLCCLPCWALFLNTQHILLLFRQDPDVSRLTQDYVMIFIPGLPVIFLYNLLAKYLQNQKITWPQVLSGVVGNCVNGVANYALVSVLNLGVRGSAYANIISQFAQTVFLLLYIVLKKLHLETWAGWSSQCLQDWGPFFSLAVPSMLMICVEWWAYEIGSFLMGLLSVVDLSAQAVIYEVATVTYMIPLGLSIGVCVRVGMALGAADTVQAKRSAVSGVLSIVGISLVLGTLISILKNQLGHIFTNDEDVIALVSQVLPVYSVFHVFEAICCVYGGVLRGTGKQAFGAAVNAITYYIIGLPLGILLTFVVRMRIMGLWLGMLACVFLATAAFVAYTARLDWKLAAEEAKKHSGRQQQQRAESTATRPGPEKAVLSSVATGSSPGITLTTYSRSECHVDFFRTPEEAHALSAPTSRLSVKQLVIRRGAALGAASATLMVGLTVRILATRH

SMILES: CN1CC(=O)NC1=N [Creatinine, creatinine]
AUC(0-t) (OCT2 and MATE1/2-K [2]; baseline): 641 µM·h
AUC(0-t) (OCT2 and MATE1/2-K [2]; cimetidine 400 mg + metformin): 669 µM·h
AUC(0-t) (OCT2 and MATE1/2-K [2]; cimetidine 800 mg + metformin): 689 µM·h
AUC(0-t) (OCT2 and MATE1/2-K [2]; control (metformin alone)): 600 µM·h
AUC(0-t) (OCT2 and MATE1/2-K [2]; [7]): 691 µM·h
AUC(0-t) (OCT2 and MATE1/2-K [2]; [8]): 712 µM·h

SMILES: CN(C)C(=N)N=C(N)N [Metformin]
AUC(0-t) (OCT2 and MATE1/2-K [4]; [10]): 213 µM·h
AUC(0-t) (OCT2 and MATE1/2-K [4]; [11]): 123 µM·h
Cmax (OCT2 and MATE1/2-K [4]; [10]): 23.8 µM
Cmax (OCT2 and MATE1/2-K [4]; [11]): 17 µM
CL renal (OCT2 and MATE1/2-K [4]; [10]): 199 mL/min
CL renal (OCT2 and MATE1/2-K [4]; [11]): 339 mL/min
AUC(0-t) (OCT2 and MATE1/2-K [4]; 800 mg, with cimetidine 800 mg): 154 µM·h
Cmax (OCT2 and MATE1/2-K [4]; 800 mg, with cimetidine 800 mg): 28 µM
CL renal (OCT2 and MATE1/2-K [4]; 800 mg, with cimetidine 800 mg): 269 mL/min
decrease of CLr of metformin (OCT2 and MATE1/2‐K [5]; cimetidine 400 mg): 15.5%
increase of AUC of metformin (OCT2 and MATE1/2‐K [5]; cimetidine 400 mg): 1.7 times
decrease of CLr of metformin (OCT2 and MATE1/2‐K [5]; cimetidine 800 mg): 42.5%
increase of AUC of metformin (OCT2 and MATE1/2‐K [5]; cimetidine 800 mg): 2.2 times
increase of C max of metformin (OCT2 and MATE1/2‐K [5]; co‐administration of cimetidine 400 mg): 2.1 times
increase of C max of metformin (OCT2 and MATE1/2‐K [5]; co‐administration of cimetidine 800 mg): 2.7 times
decrease of CLr of metformin (OCT2 and MATE1/2‐K [5]; dolutegravir fifth dose): 56.9%
decrease of CLr of metformin (OCT2 and MATE1/2‐K [5]; dolutegravir first dose): 26.8%
increase of AUC of metformin (OCT2 and MATE1/2‐K [5]; fifth dose of dolutegravir): 3.0 times
increase of C max of metformin (OCT2 and MATE1/2‐K [5]; fifth dose of dolutegravir): 2.3 times
increase of AUC of metformin (OCT2 and MATE1/2‐K [5]; first dose of dolutegravir): 1.8 times
increase of C max of metformin (OCT2 and MATE1/2‐K [5]; first dose of dolutegravir): 1.6 times
fe of metformin (fraction recovered in the urine) (OCT2 and MATE1/2‐K [5]; metformin 500 mg alone (control)): 0.649 (13.7)
fe of metformin (fraction recovered in the urine) (OCT2 and MATE1/2‐K [5]; with cimetidine 400 mg): 0.940 (13.9)***
fe of metformin (fraction recovered in the urine) (OCT2 and MATE1/2‐K [5]; with cimetidine 800 mg): 0.826 (22.1)**
fe of metformin (fraction recovered in the urine) (OCT2 and MATE1/2‐K [5]; with dolutegravir 50 mg BID, fifth dose): 0.844 (20.7)**
fe of metformin (fraction recovered in the urine) (OCT2 and MATE1/2‐K [5]; with dolutegravir 50 mg BID, first dose): 0.828 (20.6)**

SMILES: Cn1cnc2c(ncn2[C@@H]2O[C@H](CO)[C@@H](O)[C@H]2O)c1=N [m^1A, N1‐methyladenosine]
clearance for tubular secretion remaining (CLr minus creatinine CLr) (OCT2 and MATE1/2‐K [6]): 29%
AUC(0-t) (OCT2 and MATE1/2-K [2]; baseline): 0.822 µM·h
AUC(0-t) (OCT2 and MATE1/2-K [2]; cimetidine 400 mg + metformin): 0.918 µM·h
AUC(0-t) (OCT2 and MATE1/2-K [2]; cimetidine 800 mg + metformin): 0.984 µM·h
AUC(0-t) (OCT2 and MATE1/2-K [2]; control (metformin alone)): 0.791 µM·h
AUC(0-t) (OCT2 and MATE1/2-K [2]; [7]): 1.12 µM·h
AUC(0-t) (OCT2 and MATE1/2-K [2]; [8]): 0.977 µM·h
CL renal (OCT2 and MATE1/2-K [2]; baseline): 188 mL/min
CL renal (OCT2 and MATE1/2-K [2]; cimetidine 400 mg + metformin): 198 mL/min
CL renal (OCT2 and MATE1/2-K [2]; cimetidine 800 mg + metformin): 159 mL/min
CL renal (OCT2 and MATE1/2-K [2]; control (metformin alone)): 198 mL/min

SMILES: Cc1ncc(CO)c(C(=O)O)c1O [pyridoxic acid]
magnitude of inhibition of CLr (OAT1/3; at fifth dose of dolutegravir): at most 21%
change in CLr (OAT1/3; with cimetidine): no change

Second part, led by results:

inhibition of the activity of NNMT (recombinant NNMT protein; cimetidine 20 μM): eliminated the possibility
Cmax ([1]; male, human, plasma, oral, 800 mg, maximum plasma concentration (C max), cimetidine 800 mg): 25.7 µM
SMILES: CN/C(=N/CCSCc1nc[nH]c1C)NC#N [Cimetidine]
adverse event ([1]; one subject, cimetidine 800 mg (Period 2), judged to have no causal relationship with the study drug): Vomiting

Ki at 2 min (OCT2): 290 ± 40 nM
Ki (MATE2‐K): 2970 ± 400 nM
Ki (MATE1): 830 nM
inhibition of the activity of NNMT (recombinant NNMT protein; dolutegravir 30 μM): eliminated the possibility
AUC [1, 9]: 209 µM·h
AUC(0-inf) [1, 9]: 141 µM·h
Cmax ([1]; male, human, plasma, oral, 50 mg, C max up to 12 hours after metformin administration, dolutegravir 50 mg BID, fifth dose): 21.7 µM
Cmax ([1]; male, human, plasma, oral, 50 mg, C max up to 12 hours after metformin administration, dolutegravir 50 mg BID, first dose): 7.07 µM
half-life ([1]; male, human, plasma, oral, 50 mg, dolutegravir 50 mg BID, fifth dose): 16.6 ± 1.7 h
half-life ([1]; male, human, plasma, oral, 50 mg, dolutegravir 50 mg BID, first dose): 13 ± 1.1 h
SMILES: C[C@@H]1CCO[C@H]2Cn3cc(C(=O)NCc4ccc(F)cc4F)c(=O)c(O)c3C(=O)N12 [Dolutegravir]
elimination half‐life [3]: 13 to 14 h
